The values below come from ChEMBL document CHEMBL1909046, “DrugMatrix in vitro pharmacology data”.

The nature of experiment [1]: DRUGMATRIX: Glutamate, Kainate radioligand binding (ligand: [3H] Kainic acid). In kind it is cell membranes, Rattus norvegicus, Wistar, Brain, Membrane. Particulars: Not Active = under 50% inhibition at 10 µM.
The nature of experiment [2]: DRUGMATRIX: Glutamate, AMPA radioligand binding (ligand: [3H] AMPA). Type of experiment: cell membranes, Rattus norvegicus, Wistar, Cerebral cortex, Membrane. Particulars: Not Active = under 50% inhibition at 10 µM.
For experiment [3], the target named is T1, D(4) dopamine receptor (Homo sapiens, UniProt P21917).
T1 sequence (P21917 whole entry): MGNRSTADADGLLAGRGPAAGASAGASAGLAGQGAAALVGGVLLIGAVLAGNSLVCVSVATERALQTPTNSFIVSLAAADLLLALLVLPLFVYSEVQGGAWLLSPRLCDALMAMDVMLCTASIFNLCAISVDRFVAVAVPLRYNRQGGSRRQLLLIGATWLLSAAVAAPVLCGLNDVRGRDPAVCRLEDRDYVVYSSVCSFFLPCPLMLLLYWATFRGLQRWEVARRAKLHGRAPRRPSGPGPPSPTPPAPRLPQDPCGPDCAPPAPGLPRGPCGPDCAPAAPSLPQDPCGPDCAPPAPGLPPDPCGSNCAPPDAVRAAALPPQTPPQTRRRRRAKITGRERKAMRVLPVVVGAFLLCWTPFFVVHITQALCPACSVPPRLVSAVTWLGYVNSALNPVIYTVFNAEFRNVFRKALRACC
In words: DRUGMATRIX: Dopamine D4.2 radioligand binding (ligand: [3H] Spiperone). Particulars: cho-k1; Not Active = under 50% inhibition at 10 µM. In kind it is cell membranes, CHO-K1, Membrane.

The nature of experiment [4]: DRUGMATRIX: GABAA, Chloride Channel, TBOB radioligand binding (ligand: [3H] TBOB). In kind it is cell membranes, Rattus norvegicus, Wistar, Cerebral cortex, Membrane. Particulars: Not Active = under 50% inhibition at 10 µM.
Experiment [5] can be described thus: DRUGMATRIX: Imidazoline I2, Central radioligand binding (ligand: [3H] Idazoxan). In kind it is cell membranes, Rattus norvegicus, Wistar, Cerebral cortex, Membrane. The settings on record: Not Active = under 50% inhibition at 10 µM.
In experiment [6] the target is T2, Thromboxane-A synthase (Homo sapiens, UniProt P24557).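 Further: enzyme inhibition assay with PGH2 supplied as substrate; in other assays of this panel Not Active means under 50% inhibition at 10 µM.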
T2 sequence (P24557 whole entry): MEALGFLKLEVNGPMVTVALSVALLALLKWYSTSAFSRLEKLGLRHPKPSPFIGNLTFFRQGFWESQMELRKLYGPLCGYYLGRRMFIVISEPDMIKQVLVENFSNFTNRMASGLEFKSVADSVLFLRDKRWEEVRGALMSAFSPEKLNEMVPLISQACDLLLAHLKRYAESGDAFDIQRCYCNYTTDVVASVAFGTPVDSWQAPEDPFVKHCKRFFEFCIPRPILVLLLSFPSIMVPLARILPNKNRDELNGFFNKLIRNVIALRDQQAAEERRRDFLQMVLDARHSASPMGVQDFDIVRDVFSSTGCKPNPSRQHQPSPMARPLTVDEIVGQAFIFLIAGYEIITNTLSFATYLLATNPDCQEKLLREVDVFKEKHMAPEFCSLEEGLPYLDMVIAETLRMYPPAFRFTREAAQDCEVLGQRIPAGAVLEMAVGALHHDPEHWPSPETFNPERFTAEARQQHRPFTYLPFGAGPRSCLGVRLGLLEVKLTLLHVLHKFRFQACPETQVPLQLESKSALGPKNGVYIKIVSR
Briefly: biochemical. Type of experiment: tissue-based, Platelet. The settings on record: platelet.

In experiment [7] the target is Sodium-dependent noradrenaline transporter (Homo sapiens, UniProt P23975). In words: DRUGMATRIX: Norepinephrine Transporter radioligand binding (ligand: [125I] RTI-55). In kind it is cell membranes, MDCK, Membrane. The settings on record: mdck; Not Active = under 50% inhibition at 10 µM.
Experiment [8] in a line: DRUGMATRIX: Sodium/nucleoside co-transporter radioligand binding (ligand: nitrobenzylthioinosine). In kind it is cell membranes, Cavia porcellus, Dunkin-Hartley, Cerebral cortex, Membrane. Particulars: Not Active = under 50% inhibition at 10 µM.
For experiment [9], the target named is T3, C-X-C chemokine receptor type 1 (Homo sapiens, UniProt P25024). Further: in other assays of this panel Not Active means under 50% inhibition at 10 µM.
T3 sequence (P25024 whole entry): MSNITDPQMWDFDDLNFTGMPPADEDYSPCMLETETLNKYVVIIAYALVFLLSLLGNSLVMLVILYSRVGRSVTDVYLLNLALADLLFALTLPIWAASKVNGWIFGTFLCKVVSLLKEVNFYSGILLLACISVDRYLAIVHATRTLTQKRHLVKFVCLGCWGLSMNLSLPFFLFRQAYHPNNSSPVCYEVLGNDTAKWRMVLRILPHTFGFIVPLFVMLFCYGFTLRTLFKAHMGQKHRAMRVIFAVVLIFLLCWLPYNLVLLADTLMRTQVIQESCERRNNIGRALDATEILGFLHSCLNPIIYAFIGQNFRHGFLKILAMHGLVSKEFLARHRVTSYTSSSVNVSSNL

The target of experiment [10] is D(3) dopamine receptor (Homo sapiens, UniProt P35462). In words: DRUGMATRIX: Dopamine D3 radioligand binding (ligand: [3H] Spiperone). Type of experiment: cell membranes, CHO, Membrane. The settings on record: cho.
Experiment [11] addresses Glycine receptor (Rattus norvegicus, UniProt P22771+P24524+P07727+P20781). In kind it is cell membranes, Wistar, Spinal cord, Membrane.
Experiment [12] has as its target 5-hydroxytryptamine receptor 2B (Homo sapiens, UniProt P41595). In kind it is cell membranes, CHO-K1, Membrane. Particulars: cho-k1. Further: in other assays of this panel Not Active means under 50% inhibition at 10 µM.
The nature of experiment [13]: DRUGMATRIX: Platelet-Derived Growth Factor (PDGF) radioligand binding (ligand: [125I] PDGF). Type of experiment: cell-based. Particulars: nih3t3; Not Active = under 50% inhibition at 10 µM.
Experiment [14] in a line: DRUGMATRIX: beta-Lactamase enzyme inhibition (substrate: Nitrocefin). Also noted: species or system Bacillus cereus. Particulars: Not Active = under 50% inhibition at 10 µM.
Experiment [15] deals with 5-hydroxytryptamine receptor 6 (Homo sapiens, UniProt P50406). Type of experiment: cell membranes, HeLa, Membrane. The settings on record: hela.
Experiment [16] addresses Beta-3 adrenergic receptor (Homo sapiens, UniProt P13945). Briefly: DRUGMATRIX: Adrenergic beta3 radioligand binding (ligand: [125I] Cyanopindolol). In kind it is cell membranes, HEK293, Membrane. The settings on record: hek293; Not Active = under 50% inhibition at 10 µM.
Experiment [17] concerns the target Histamine H2 receptor (Homo sapiens, UniProt P25021). In kind it is cell membranes, CHO-K1, Membrane. Particulars: cho-k1. Further: in other assays of this panel Not Active means under 50% inhibition at 10 µM.

5-hydroxytryptamine receptor 6, sequence (P50406 whole entry): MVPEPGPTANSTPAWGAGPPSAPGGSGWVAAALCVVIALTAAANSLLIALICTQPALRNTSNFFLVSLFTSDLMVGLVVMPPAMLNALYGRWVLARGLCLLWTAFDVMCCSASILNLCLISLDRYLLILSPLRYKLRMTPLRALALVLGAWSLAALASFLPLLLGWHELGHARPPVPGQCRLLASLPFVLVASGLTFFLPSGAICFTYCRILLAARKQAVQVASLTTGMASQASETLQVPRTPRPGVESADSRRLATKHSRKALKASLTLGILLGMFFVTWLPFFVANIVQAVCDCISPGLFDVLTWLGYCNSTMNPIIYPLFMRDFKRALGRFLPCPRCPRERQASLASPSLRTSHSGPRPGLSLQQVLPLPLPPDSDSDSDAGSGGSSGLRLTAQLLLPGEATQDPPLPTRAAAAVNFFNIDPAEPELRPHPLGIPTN
Sodium-dependent noradrenaline transporter, sequence (P23975 whole entry): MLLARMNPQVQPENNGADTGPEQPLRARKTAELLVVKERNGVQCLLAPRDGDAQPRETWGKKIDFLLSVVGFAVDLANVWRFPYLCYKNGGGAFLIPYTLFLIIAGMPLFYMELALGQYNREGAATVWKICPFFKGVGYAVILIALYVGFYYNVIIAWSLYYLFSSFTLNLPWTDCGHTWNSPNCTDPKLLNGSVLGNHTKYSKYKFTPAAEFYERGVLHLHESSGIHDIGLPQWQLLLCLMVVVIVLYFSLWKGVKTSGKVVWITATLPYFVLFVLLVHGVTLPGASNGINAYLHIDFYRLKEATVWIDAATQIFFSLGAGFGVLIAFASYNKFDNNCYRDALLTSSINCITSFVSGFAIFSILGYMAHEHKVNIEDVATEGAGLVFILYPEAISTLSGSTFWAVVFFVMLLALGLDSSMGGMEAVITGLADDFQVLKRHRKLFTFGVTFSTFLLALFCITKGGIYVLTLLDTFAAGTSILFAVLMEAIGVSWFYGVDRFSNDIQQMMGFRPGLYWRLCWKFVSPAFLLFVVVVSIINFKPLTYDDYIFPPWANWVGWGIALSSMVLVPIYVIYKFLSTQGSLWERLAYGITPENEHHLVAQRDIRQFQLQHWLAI
Histamine H2 receptor, sequence (P25021 whole entry): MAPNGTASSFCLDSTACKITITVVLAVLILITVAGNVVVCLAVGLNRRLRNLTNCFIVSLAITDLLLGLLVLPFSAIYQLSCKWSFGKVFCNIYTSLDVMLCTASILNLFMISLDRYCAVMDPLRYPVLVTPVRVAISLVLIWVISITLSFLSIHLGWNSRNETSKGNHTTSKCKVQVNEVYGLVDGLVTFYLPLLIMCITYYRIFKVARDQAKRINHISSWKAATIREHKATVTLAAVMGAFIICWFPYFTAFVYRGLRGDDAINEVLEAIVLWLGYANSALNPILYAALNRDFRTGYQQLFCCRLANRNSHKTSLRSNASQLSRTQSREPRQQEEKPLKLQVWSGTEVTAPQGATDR
5-hydroxytryptamine receptor 2B, sequence (P41595 whole entry): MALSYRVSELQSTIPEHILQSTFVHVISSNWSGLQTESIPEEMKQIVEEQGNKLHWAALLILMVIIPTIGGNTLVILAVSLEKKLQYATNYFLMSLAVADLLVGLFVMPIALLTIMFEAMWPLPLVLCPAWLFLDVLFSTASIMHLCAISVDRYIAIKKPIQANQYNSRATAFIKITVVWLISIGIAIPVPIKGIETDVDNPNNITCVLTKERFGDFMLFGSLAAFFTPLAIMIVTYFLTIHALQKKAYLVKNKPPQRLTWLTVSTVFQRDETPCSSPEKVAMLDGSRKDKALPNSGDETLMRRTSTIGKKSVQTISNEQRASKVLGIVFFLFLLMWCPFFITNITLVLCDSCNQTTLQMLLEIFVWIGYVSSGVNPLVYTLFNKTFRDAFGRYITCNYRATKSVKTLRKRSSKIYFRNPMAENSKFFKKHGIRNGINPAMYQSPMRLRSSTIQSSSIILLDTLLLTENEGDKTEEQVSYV
D(3) dopamine receptor, sequence (P35462 whole entry): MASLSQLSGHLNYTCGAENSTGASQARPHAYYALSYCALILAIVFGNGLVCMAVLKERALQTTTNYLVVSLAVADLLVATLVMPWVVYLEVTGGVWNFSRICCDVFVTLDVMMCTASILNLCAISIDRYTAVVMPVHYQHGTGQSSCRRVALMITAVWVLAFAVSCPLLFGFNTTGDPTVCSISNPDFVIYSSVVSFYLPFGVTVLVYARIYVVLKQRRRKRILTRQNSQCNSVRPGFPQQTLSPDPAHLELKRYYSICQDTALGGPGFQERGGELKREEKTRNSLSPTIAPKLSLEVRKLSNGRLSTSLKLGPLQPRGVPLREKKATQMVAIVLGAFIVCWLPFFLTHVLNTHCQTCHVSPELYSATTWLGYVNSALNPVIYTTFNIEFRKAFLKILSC
Beta-3 adrenergic receptor, sequence (P13945 whole entry): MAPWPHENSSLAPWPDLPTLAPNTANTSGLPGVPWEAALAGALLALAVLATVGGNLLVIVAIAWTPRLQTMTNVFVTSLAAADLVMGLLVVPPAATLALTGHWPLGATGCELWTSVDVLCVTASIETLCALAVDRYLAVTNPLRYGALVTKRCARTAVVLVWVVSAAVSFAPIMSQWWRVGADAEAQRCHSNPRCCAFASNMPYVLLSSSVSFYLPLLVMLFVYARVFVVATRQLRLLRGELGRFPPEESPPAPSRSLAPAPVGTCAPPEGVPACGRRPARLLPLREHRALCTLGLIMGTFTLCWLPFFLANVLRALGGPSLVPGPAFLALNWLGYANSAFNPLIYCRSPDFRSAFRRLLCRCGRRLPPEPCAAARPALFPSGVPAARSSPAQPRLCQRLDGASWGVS

One may read the IC50 as the midpoint of a concentration-inhibition curve. Take `COc1ccc2cc(CC(=O)O)ccc2c1`: the half-maximal inhibitory concentration (IC50) result in experiment [1], in experiment [2], in experiment [3], in experiment [4], in experiment [5] and in experiment [6] was “Not Active” throughout. The IC50 entry in [7], in experiment [8], in experiment [9], in experiment [10], in [11] and in [12] was “Not Active” each time. Besides, the concentration for half-maximal inhibition (IC50) result in [13], in experiment [14], in [15], in experiment [16] and in experiment [17] was “Not Active” throughout. Further, the Ki entry in [1], in experiment [2], in experiment [4], in experiment [5], in [8] and in [13] was “Not Active” throughout. In addition, the Ki result in [14] is listed as “Not Active”.
`c1ccc2c(c1)cc1ccc3cccc4ccc2c1c34`: the IC50 result in experiment [1], in experiment [2], in experiment [3], in experiment [4], in [5] and in [6] was “Not Active” each time. The IC50 result in experiment [7], in experiment [8], in [9], in experiment [10], in experiment [11] and in experiment [12] was “Not Active” in each case. The half-maximal inhibitory concentration (IC50) result was “Not Active” in experiment [13]; 20.7 µM in [14] (read-out: IC50); “Not Active” in experiment [15]; “Not Active” in experiment [16]; “Not Active” in experiment [17]. The Ki result in experiment [1], in experiment [2], in experiment [4], in [5], in experiment [8] and in [13] was “Not Active” in each case.
`CC=CC(=O)N(CC)c1ccccc1C`: the concentration for half-maximal inhibition (IC50) result in experiment [1], in experiment [2], in experiment [3], in [4], in experiment [5] and in experiment [6] was “Not Active” throughout. The half-maximal inhibitory concentration (IC50) result in experiment [7], in [8], in [9], in experiment [10], in [11] and in experiment [12] was “Not Active” each time. Moreover, the concentration for half-maximal inhibition (IC50) result in experiment [13], in experiment [14], in [15], in [16] and in [17] was “Not Active” each time. Moreover, the Ki result in experiment [1], in [2], in experiment [4], in experiment [5], in experiment [8] and in experiment [13] was “Not Active” in each case. For the same compound, in [14], the Ki result is “Not Active”.
Regarding `C=C1C(=O)O[C@@H]2C3O[C@]3(C)CC/C=C(\C)CC[C@@H]12` (some centres undefined), the 50% inhibitory concentration (IC50) entry in experiment [1], in experiment [2], in experiment [3], in experiment [4], in experiment [5] and in experiment [6] was “Not Active” in each case. Also, the IC50 entry in [7], in [8], in experiment [9], in experiment [10], in experiment [11] and in experiment [12] was “Not Active” each time. Also, the IC50 entry in experiment [13], in experiment [14], in experiment [15], in [16] and in experiment [17] was “Not Active” throughout. The Ki entry in [1], in experiment [2], in experiment [4], in [5], in experiment [8] and in experiment [13] was “Not Active” each time. In experiment [14], the Ki entry is reported as “Not Active”.
For the compound `CC(/C=C1\SC(=S)N(CC(=O)O)C1=O)=C\c1ccccc1`, the IC50 entry in experiment [1], in experiment [2], in [3], in [4], in experiment [5] and in experiment [6] was “Not Active” each time. In addition, the half-maximal inhibitory concentration (IC50) entry in experiment [7], in [8], in experiment [9], in experiment [10], in experiment [11] and in experiment [12] was “Not Active” each time. Further, the IC50 entry in experiment [13], in experiment [14], in experiment [15], in experiment [16] and in experiment [17] was “Not Active” each time. The Ki entry in experiment [1], in experiment [2], in experiment [4], in experiment [5], in experiment [8] and in experiment [13] was “Not Active” throughout. In addition, the Ki entry in experiment [14] is “Not Active”.
